Laboratory results as given in patent US20260028336A1 (Arcus Biosciences, Inc., priority 2022, published 2026).

Key:
Cbl-b = molecular target: T1, Cbl-b (Homo sapiens, UniProt Q13191); assay: Cbl-b probe displacement HTRF binding assay; conditions: 0.4 nM biotinylated Cbl-b, 150 nM BODIPY probe
T1 construct: biotin (biotinylated)
Outline: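 Biotinylated Cbl-b was preincubated with compound for 60 min at room temperature in HEPES/NaCl/Triton/TCEP/BSA buffer. BODIPY probe was added for 15 min, followed by streptavidin-terbium, and the HTRF signal was read. Displacement was normalised to DMSO and no-protein controls, and affinity was obtained from a four-parameter dose-response fit.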

Jurkat cells = assay: IL-2 secretion assay in CD3/CD28-activated Jurkat cells (AlphaLISA); type: cell-based; conditions: Homo sapiens, CD3/CD28 T Cell Activator, 24 h, IL-2 AlphaLISA
Outline: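 Jurkat cells (50,000/well) were preincubated 1 h at 37° C with compound in a 16-point 1:2 series spanning 10 μM to 300 pM final. Cells were then activated with CD3/CD28 T cell activator, and secreted IL-2 was read by AlphaLISA. EC50 came from 4-parameter logistic fits.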

T1 sequence (Q13191 whole entry, species assumed): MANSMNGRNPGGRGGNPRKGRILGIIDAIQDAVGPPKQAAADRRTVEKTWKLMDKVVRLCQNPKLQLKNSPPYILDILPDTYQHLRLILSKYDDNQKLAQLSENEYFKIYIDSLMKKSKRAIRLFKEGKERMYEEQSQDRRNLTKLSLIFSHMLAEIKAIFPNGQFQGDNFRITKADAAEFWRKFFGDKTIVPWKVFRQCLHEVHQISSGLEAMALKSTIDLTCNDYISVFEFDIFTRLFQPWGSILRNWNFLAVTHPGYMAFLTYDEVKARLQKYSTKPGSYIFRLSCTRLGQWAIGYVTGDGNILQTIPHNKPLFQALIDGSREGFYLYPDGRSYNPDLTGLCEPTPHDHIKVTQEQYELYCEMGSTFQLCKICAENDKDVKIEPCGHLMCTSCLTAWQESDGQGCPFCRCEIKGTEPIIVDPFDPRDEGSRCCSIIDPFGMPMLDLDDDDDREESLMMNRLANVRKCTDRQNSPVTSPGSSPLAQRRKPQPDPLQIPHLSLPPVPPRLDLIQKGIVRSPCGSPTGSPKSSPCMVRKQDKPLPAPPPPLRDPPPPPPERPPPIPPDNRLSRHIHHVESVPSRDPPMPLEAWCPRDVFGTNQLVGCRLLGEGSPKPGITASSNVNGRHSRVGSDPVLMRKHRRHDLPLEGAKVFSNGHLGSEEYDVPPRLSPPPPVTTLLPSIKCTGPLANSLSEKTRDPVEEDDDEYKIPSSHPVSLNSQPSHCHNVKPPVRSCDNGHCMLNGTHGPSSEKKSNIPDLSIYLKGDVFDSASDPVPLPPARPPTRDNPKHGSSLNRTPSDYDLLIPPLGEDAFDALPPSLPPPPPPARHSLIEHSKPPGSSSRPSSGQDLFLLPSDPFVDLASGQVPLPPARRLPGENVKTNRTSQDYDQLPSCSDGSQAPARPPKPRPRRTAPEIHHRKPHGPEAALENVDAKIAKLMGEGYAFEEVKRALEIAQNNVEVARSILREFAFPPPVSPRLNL

IC50 (Cbl-b) | EC50 (Jurkat cells) | Structure (SMILES)
100 to 1000 nM | 100 to 1000 nM | COC(C)(c1cccc(-n2cc(C3CC3)c3cc(CN4CCC[C@H](C)C4)[nH]c3c2=O)c1)c1nncn1C (stereo partly drawn) [Example 159, 4-cyclopropyl-6-[3-[1-methoxy-1-(4-methyl-1,2,4-triazol-3-yl)ethyl]phenyl]-2-[[(3S)-3-methylpiperidin-1-yl]methyl]-1H-pyrrolo[2,3-c]pyridin-7-one]
100 to 1000 nM | 100 to 1000 nM | C[C@H]1CCCN(Cc2cc3c(C4CC4)cn(-c4cc(C(C)(C)c5nncn5C)ccn4)c(=O)c3[nH]2)C1 [Example 160, 2—{[(S)-3-methyl-1-piperidyl]methyl}-4-cyclopropyl-6-{4-[1-methyl-1-(4-methyl-4H-1,2,4-triazol-3-yl)ethyl]-2-pyridyl}-1,6-dihydro-1,6-diaza-7-indenone]
< 100 nM | 100 to 1000 nM | C[C@H]1CCCN(Cc2cc3c(C4CC4)cn(-c4cccc(C(F)(F)c5nncn5C)c4)c(=O)c3[nH]2)C1 [Example 161, 4-cyclopropyl-6-[3-[difluoro-(4-methyl-1,2,4-triazol-3-yl)methyl]phenyl]-2-[[(3S)-3-methylpiperidin-1-yl]methyl]-1H-pyrrolo[2,3-c]pyridin-7-one]

Second part, the molecule before the results:

Structure (SMILES) | IC50 (Cbl-b) | EC50 (Jurkat cells)
C[C@H]1CCCN(Cc2cc3c(C4CC4)cn(-c4cccc(C5(c6nncn6C(F)F)CC6(CC6)C5)c4)c(=O)c3[nH]2)C1 [Example 150, 4-cyclopropyl-6-[3-[5-[4-(difluoromethyl)-1,2,4-triazol-3-yl]spiro[2.3]hexan-5-yl]phenyl]-2-[[(3S)-3-methylpiperidin-1-yl]methyl]-1H-pyrrolo[2,3-c]pyridin-7-one] | < 100 nM | < 100 nM
C[C@H]1CCCN(Cc2cc3c(C4CC4)cn(-c4cccc([C@]5(c6nncn6C(F)F)C[C@H](OC(F)F)C5)c4)c(=O)c3[nH]2)C1 [Example 151, 2—{[(S)-3-methyl-1-piperidyl]methyl}-4-cyclopropyl-6-(m-{(1r,3S)-3-difluoromethoxy-1-[4-(difluoromethyl)-4H-1,2,4-triazol-3-yl]cyclobutyl}phenyl)-1,6-dihydro-1,6-diaza-7-indenone] | < 100 nM | < 100 nM
O=c1c2[nH]c(CNCC3(O)CCC3)cc2c(C2CC2)cn1-c1cccc([C@]2(c3nncn3C(F)F)C[C@H](OC(F)F)C2)c1 [Example 152, 4-cyclopropyl-2-({[(1-hydroxycyclobutyl)methyl]amino}methyl)-6-(m-{(1r,3r)-3-difluoromethoxy-1-[4-(difluoromethyl)-4H-1,2,4-triazol-3-yl]cyclobutyl}phenyl)-1,6-dihydro-1,6-diaza-7-indenone] | < 100 nM | 1000 to 5000 nM
C[C@H]1CCCN(Cc2cc3c(C4CC4)cn(-c4cccc([C@H](c5nncn5C(F)F)C5CCC5)c4)c(=O)c3[nH]2)C1 [Example 154, 6-(m-{(R)-cyclobutyl[4-(difluoromethyl)-4H-1,2,4-triazol-3-yl]methyl}phenyl)-2-{[(S)-3-methyl-1-piperidyl]methyl}-4-cyclopropyl-1,6-dihydro-1,6-diaza-7-indenone] | < 100 nM | 100 to 1000 nM
C[C@H]1CCCN(Cc2cc3c(C4CC4)cn(-c4cccc(C(O)(c5nncn5C)C5CCC5)c4)c(=O)c3[nH]2)C1 (stereo partly drawn) [Example 155, 6-[3-[cyclobutyl-hydroxy-(4-methyl-1,2,4-triazol-3-yl)methyl]phenyl]-4-cyclopropyl-2-[[(3S)-3-methylpiperidin-1-yl]methyl]-1H-pyrrolo[2,3-c]pyridin-7-one] | < 100 nM | 100 to 1000 nM
C[C@H]1CCCN(Cc2cc3c(C4CC4)cn(-c4cccc(C(O)(c5nncn5C)C(F)(F)F)c4)c(=O)c3[nH]2)C1 (some centres unmarked) [Example 156] | < 100 nM | 100 to 1000 nM
COC(c1cccc(-n2cc(C3CC3)c3cc(CN4CCC[C@H](C)C4)[nH]c3c2=O)c1)c1nncn1C (some centres unmarked) [Example 158] | < 100 nM | 100 to 1000 nM
